One test concerns the target T1, heme oxygenase (Rattus norvegicus, UniProt P06762).
T1 construct: rat spleen - heme oxygenase incubation mixtures; from tissue; host or cells: rat spleen
T1 sequence (P06762 1-289): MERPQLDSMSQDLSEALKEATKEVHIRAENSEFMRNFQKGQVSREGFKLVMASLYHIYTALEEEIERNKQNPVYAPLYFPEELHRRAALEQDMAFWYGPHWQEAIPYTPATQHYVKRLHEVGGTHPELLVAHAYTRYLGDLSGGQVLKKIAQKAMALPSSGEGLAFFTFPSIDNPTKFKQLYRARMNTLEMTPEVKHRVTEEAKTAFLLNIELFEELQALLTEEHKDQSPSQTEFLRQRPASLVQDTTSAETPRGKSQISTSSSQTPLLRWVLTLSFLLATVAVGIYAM
Kind of test: rat spleen heme oxygenase incubation, in vitro inhibition. The format is biochemical. The settings on record: for Km: normal Km 3.64 μM, read-out: Km for degradation of heme by heme oxygenase to bile pigment.

Test [1] in a line: biliary output of bilirubin, heme and iron in rats. The format is in vivo, rat. The procedure: It has been observed that when heme is administered alone to animals such as rats, a large output of biliary bilirubin (mono- and diglucuronide forms) occurs, with a slight output of excess heme.
It is therefore clear that the administration of SnMP to mammals increases the biliary excretion of excess heme and thus of its contained iron atom as well. They make it clear also that the excess heme which accumulates when the rate of bilirubin production is decreased by the administration of SnMP is excreted in the bile and not stored in tissues. More particularly, they make it clear that the administration of SnMP to mammals suffering acute or chronic excess of heme or iron will increase the rate at which such heme or iron will be excreted into the intestinal contents.

Test [2] concerns serum bilirubin. Kind of test: experimental postnatal hyperbilirubinemia produced by ALA in 7 day old rats, serum bilirubin. To be noted: single dose 1 μmol/kg body weight at 0 time, 24 hours. The test is classed as in vivo, rat. The protocol:
(§1) The efficacy of SnMP for controlling hyperbilirubinemia was also examined in a model of experimental postantal hyperbilirubinemia in the rat utilizing the heme precursor […] (ALA) to produce jaundice 7 days after birth (Drummond & Kappas, J. Clin. Invest., 74, 142-149, 1984). AlA (50 μmol/100g body weight) administered to suckling 7 day old neonates at 0,4 and 8 hours produced an approximately 3 fold increase in serum bilirubin levels 24 hours after the initial injection (FIG. 3). […] Heme oxygenase was assayed as earlier described (J. Biol. Chem., 253, 2321-2326, 1978).

A further test relates to hepatic heme oxygenase. Kind of test: hepatic heme oxygenase activity in ALA-treated 7 day old rats. The test is classed as in vivo, rat. To be noted: single dose 1 μmol/kg body weight. The procedure: as §1
The test system of test [3] is liver tryptophan pyrrolase. Nature of the test: liver tryptophan pyrrolase activity and heme saturation after parenteral administration to rats. The format is in vivo, rat. The settings on record: 1 μmol/kg s.c. The procedure: With adults afflicted with sickle cell anemia or another condition resulting in increased bilirubin concentration, the dosage unit is normally smaller since in all but the most acute situations, the bilirubin concentration is not as high as in neonates. The standard dosage with adults will normally be from about 2 to 5 mg/kg of body weight. […] In this study SnMP was administered subcutaneously at a dosage level of 1 μmol/kg of body weight to male Sprague-Dawley rats (180-200g). Control animals received an equivalent volume of aqueous isotonic saline. Tissue preparation of liver fractions for enzymic assays were conducted as described by Drummond and Kappas. Proc. Natl. Acad. Sci. USA. 78:6466-6470 (1981). Tryptophan pyrrolase activity was determined both in the absence (holoenzyme) and the presence (total enzyme) of added heme ([…]). The latter enzyme activity was calculated from the linear phase of kynurenine formation. The percent heme saturation for tryptophan pyrrolase was expressed as the ratio of holoenzyme to total enzyme (×100 ). Each data point in the figure represents the mean value of determinations in 3 to 6 animals.

Test [4] relates to serum bilirubin. Kind of test: serum bilirubin in newborn rats after a single subcutaneous injection at birth.

Where two headings read alike, the source gives them in different places.

tin mesoporphyrin [SnMP]: the “inhibition of heme oxygenase activity” value on heme oxygenase (0.025 and 0.05 μM SnMP) is on record as “marked competitive inhibition”. Besides, the Km stood at 11.1 µM on heme oxygenase (SnMP 0.025 μM) and 18.2 µM on heme oxygenase (SnMP 0.05 μM). Besides, at heme oxygenase (compared with SnPP), the “in vitro ability to inhibit the production of bilirubin relative to SnPP” value is listed as “just about as effective in this regard as SnPP”. For the same substance, the Ki at heme oxygenase (rat spleen heme oxygenase, read-out: inhibition constant Ki for the inhibition of the conversion of heme to bilirubin by heme oxygenase) is 13 nM. The “output of biliary iron” value in test [1] (bile duct cannulated rats) is reported as “increase in output of biliary iron”. Also, in test [1] (rats, SnMP administered with heme), the biliary bilirubin output entry is reported as “the bilirubin peak will decline”. In addition, in the test with serum bilirubin [2], the “effect on the increase in serum bilirubin produced by ALA” value is “substantially diminished”. Further, in the test with hepatic heme oxygenase, the “effect on the increase in hepatic heme oxygenase activity associated with ALA administration” value is given as “prevented the increase”. Further, in test [3] (male Sprague-Dawley rats, in two hours), the “percent heme saturation of tryptophan pyrrolase” value is “approximately 80%”. Also, in test [3] (rats, compared with SnPP), the “duration of the initial high tryptophan pyrrolase activity relative to SnPP” value is “maintained for a more extended period of time”. The “effect on the increase in serum bilirubin 24 hours after birth” value in the test on serum bilirubin [4] (1 μmol/kg body weight s.c. once at birth) was “entirely prevented”. Moreover, the “effectiveness in vivo in lowering plasma bilirubin / suppressing neonatal jaundice relative to SnPP” value with serum bilirubin [4] (compared with SnPP) is 5-10 times.

Values taken from patent US4657902A, “Therapeutic use of tin mesoporphyrin” (The Rockefeller University, priority 1985, dated 1987).
